Test results from patent publication US20100105766A1, “COMPOSITION FOR INHIBITION OR PREVENTION OF BONE DENSITY REDUCTION” (Kirin Beer Kabushiki Kaisha, priority 2003, published 2010).
“Also recorded” adds a separate entry of the source.

What was measured:
[1] = system: estrogen-responsive human breast cancer-derived MCF-7 cells; assay: Estrogen activity measured by cell growth of MCF-7 cells (Cell Counting Kit); format: cell-based; details: for estrogen activity compared with the activity of estradiol: MCF-7 cell growth, relative to 17β-estradiol; for estrogen activity (cell growth of MCF-7 cells as index): 7 days of culture, absorbance at 450 nm
Protocol: The estrogen activity of the test compound was measured using as an index cell growth of estrogen-responsive human breast cancer-derived MCF-7 cells. The cell line used is one that expressed an estrogen receptor and enhanced cell growth in the presence of an estrogen-like substance. Therefore, the estrogen activity was measured by measuring the cell growth of the cell line with Cell Counting Kit (manufactured by DOJINDO LABORATORIES).
The measurement of cell growth of MCF-7 cells with the Cell Counting Kit was carried out by measuring the absorbance at 450 nm of formazane produced from a WST-1 reagent ([…], monosodium salt) incorporated in cells with a microplate reader (SOFTmax (manufactured by Molecular Devices Corporation)).
More specifically, MCF-7 cells were precultured for 3 days in a DMEM medium containing 10% of fetal calf serum (manufactured by Gibco), which had been treated using Dextran-Coated Charcoal (manufactured by Sigma) for adsorbing and removing endogenous steroids, and further containing penicillin and streptomycin (each 10000 units, 1 mg/ml, manufactured by Gibco), 0.1 mM nonessential amino acid (manufactured by Gibco), 1 mM sodium pyruvate (manufactured by Gibco), and 1 μg/ml insulin (human recombinant 27.5 USP unit/mg: (manufactured by Sigma)). A cell suspension having an MCF-7 cell concentration of 8×10^4 cells/ml was prepared and was seeded on a 96 well plate in an amount of 100 μl/well. One day after the initiation of the culture, the medium in the wells was replaced by a medium containing a test compound (0.1% (v/v)) dissolved in dimethylsulfoxide, and culture was continued. On the fourth day of the culture, the medium in the wells was again replaced by a fresh medium containing the test compound. On the seventh day of the culture, the cell growth was measured with Cell Counting Kit.
For purified isoxanthohumol and chemically synthesized 8-prenylnaringenin, the estrogen activity was measured in the same manner as in test 1, except that the concentrations of the test compound in the medium for MCF-7 cell culture were set as follows.
Isoxanthohumol was added so that the concentration of isoxanthohumol in the medium was 1.0×10^−5, 1.0×10^−6, 1.0×10^−7, 1.0×10^−8, 1.0×10^−9, and 1.0×10^−10 mol/L.

[2] = system: ovariectomized female SD rats; assay: Amelioration of bone mineral density reduction after removal of ovaries (pQCT, femur), test 4; format: in vivo, rat; details: oral 10 ml/kg once a day for 28 days, concentrations equal to those in beer (isoxanthohumol also 5-fold and 20-fold)
Protocol: Ovaries on both sides of 9-week old female SD rats were removed, and, from the next day of the ovary removal, the test compound was orally administered into the stomach through a stomach tube (liquid amount 10 ml/kg) once a day for 28 days.
(§1) For the control group and sham operation group, the 0.8% aqueous ethanol solution was orally administered in the same manner as in the test compound administration group. 17β-Estradiol was provided as a positive control and was subcutaneously administered at a dose of 4 μg/kg/day.
Beer (domestically produced pilsner beer) contained 2.1 mg/L isoxanthohumol and 43 μg/L 8-prenylnaringenin. Here this beer was once lyophilized and was then dissolved in water to remove ethanol to give a test compound which was then used in the test.
Isoxanthohumol was dissolved in a 0.8% aqueous ethanol solution so that, as compared with the concentration of isoxanthohumol contained in beer, the resultant solutions had 1-fold, 5-fold and 20-fold isoxanthohumol concentrations. […]
The bone mineral density was measured by dissecting the femur of rats and identifying the cancellous bone mineral density at the distal metaphysis bone end with a pQCT (Peripheral Quantitative computed tomography) bone mineral density measuring apparatus (XCT-960A, manufactured by Norland Stratec).

[3] = system: ovariectomized female SD rats; assay: In vivo estrogen activity in ovariectomized rats (uterine weight), test 3-b; set-up: species or system rat
Protocol: Ovaries on both sides of 9-week old female SD rats (available from Charles River Japan, Inc.) were removed, and the rats were randomly grouped so that each group consisted of 6 animals. The animals were reared with free feeding of water and AlN-76A (manufactured by CLEA JAPAN INC.). From the next day of the operation, the test compound was forcibly orally administered into the stomach through a stomach tube (liquid amount 10 ml/kg) once a day for 28 days.
as §1, with “Isoxanthohumol was dissolved in a 0.8% aqueous ethanol solution so that, as compared with the concentration of isoxanthohumol contained in beer, the resultant solutions had 1-fold, 5-fold and 20-fold isoxanthohumol concentrations. For” for “For”, “2” for “4”

young Wistar female rats = assay: In vivo estrogen activity in immature rats (uterine weight), test 3-a; set-up: species or system rat; details: oral 1, 5 or 25 mg/kg/day once a day for 3 days
Protocol: In vivo estrogen activity was evaluated using young Wistar female rats. The rats used were provided as follows. At the outset, 20-day old Wistar female rats (available from Charles River Japan, Inc.) were selected so that the difference in body weight among the animals was within ±10% of the average body weight. Thereafter, the animals were randomly grouped so that each group consisted of 6 animals. The animals were reared with free feeding of water and AlN-76A (manufactured by CLEA JAPAN INC.).
After preliminary rearing for one day, isoxanthohumol or 8-prenylnaringenin was forcibly orally administered into the stomach through a stomach tube at a dose of 1, 5, or 25 mg/kg/day (liquid amount 10 ml/kg) once a day for 3 days. For the control group, a solvent (peanut oil) was orally administered in the same manner as described, and for the positive control, 17β-estradiol was provided and was orally administered at a dose of 400 μg/kg/day in the same manner as described above. About 24 hr after the final administration, the uterine was harvested from the rats, and the weight of the uterine was measured to measure the in vivo estrogen activity.

bone resorption = details: in vitro experiment, reported in the literature; cited from earlier work

Molecule | estrogen activity compared with the activity of estradiol [1] | estrogen activity (cell growth of MCF-7 cells as index) [1] | amelioration of cancellous bone mineral density reduction in the femur [2] | dose without uterine weight increasing activity relative to the dose that exhibited bone mineral density reduction inhibitory activity [3] [times] | in vivo estrogen activity (recovery of uterine weight) ([3]; oral 10 ml/kg once a day for 28 days, 1-fold, 5-fold and 20-fold the concentration in beer) | in vivo estrogen activity (uterine weight increasing activity) (young Wistar female rats) | bone resorption inhibitory effect (bone resorption)
CC(C)=CCc1c(O)cc(O)c2c1O[C@H](c1ccc(O)cc1)CC2=O [8-prenylnaringenin, reference compound] | 10^−2 time | had estrogen activity | This amelioration was not observed | – | – | – | –
COc1cc(O)c(CC=C(C)C)c2c1C(=O)CC(c1ccc(O)cc1)O2 (stereo not drawn) [isoxanthohumol] | about 10^−5 time | had estrogen activity; also recorded: has estrogen activity | confirmed to be effective; also recorded: better than the effect of xanthohumol; also recorded: significantly ameliorated; also recorded: significantly improved a bone mineral density reduction | 20 | significant recovery of the weight of the uterine was not observed; also recorded: did not exhibit uterine weight increasing activity | did not have in vivo estrogen activity for immature rats or had only a very low level of activity; also recorded: did not exhibit uterine weight increasing activity; also recorded: uterine hypertrophy action was not observed | –
COc1cc(O)c(CC=C(C)C)c(O)c1C(=O)/C=C/c1ccc(O)cc1 [xanthohumol, reference compound] | – | – | any activity as in isoxanthohumol was not observed | – | – | – | proven to have bone resorption inhibitory effect
Humulons | – | – | – | – | – | – | proven to have bone resorption inhibitory effect
